From patent publication US9707239B2, “Compounds that modulate oxidative stress” (vTv Therapeutics LLC, priority 2011, dated 2017)
Entries after “also recorded” stand apart in the source; their conditions may differ.

Legend:
Assay type in all cases: cell-based, human
ATF4 = assay: mRNA expression (Quantigene Plex) in NHLF cells: ATF4; details: Table 5, 6 h, mRNA normalized to GAPDH, above DMSO treated cells
Experimental: (§1) Secondary growth of NHLF cells were used for all assays. Cell were thawed and then placed into culture in T225 flasks. The cells were grown to 80% confluency and harvested by washing once with HEPES buffered saline solution and then trypsinizing. Equal numbers (7×10^3 cells per well) of NHLF cells were plated in 96 well tissue culture plates (Corning). Cells were incubated overnight in FGM-2 medium prior to exposure to compound. Cells were treated with either DMSO or a compound as described below for 6 h. Preparation of cell lysates was carried out according to instructions using the Quantigene Reagent system 2.0 protocol (Panomics). mRNA induction was detected from cell lysate using the Quantigene Plex 2.0 Assay Kit (Panomics) on the Luminex platform (BIO-RAD). Expression of GAPDH mRNA was used as the internal control for the Quantigen Plex 2.0 Assay. The data in Tables 5 and 6 represents the fold change of target mRNA expression, normalized to control values, above DMSO treated cells.

HMOX1 [1] = assay: mRNA expression (Quantigene Plex) in NHLF cells: HMOX1; details: Table 5, 6 h, mRNA normalized to GAPDH, above DMSO treated cells
Experimental: as §1

HMOX1 [2] = assay: Effect of NAC on compound induction of HMOX gene expression; details: NHLF cells pretreated with 5 mM NAC 1 hr, compound 6 h, FIG. 4
Experimental: NHLF cells were grown to 80% confluency and harvested by washing once with HEPES and then trypsinizing. Equal numbers (7×10^4 cells per well) of NHLF cells were plated in 96 well tissue culture (Corning) plates. Cells were incubated overnight in FGM-2 medium prior to exposure to compound. Cells were pretreated with 5 mM N-acetyl cysteine for 1 hr. Cells were treated with either DMSO or compound for 6 h. Preparation of cell lysates was carried out according to Quantigene Reagent system 2.0 protocol (Panomics). Heme oxygenase mRNA induction was detected from cell lysate using the Quantigene Plex 2.0 Assay Kit (Panomics) on the Luminex platform (BIO-RAD). Expression of GAPDH mRNA was used as the internal control for the Quantigen Plex 2.0 Assay. Heme oxygenase data represents the fold change, normalized to control values, above DMSO treated cells.
A further test of the hypothesis that Compound 13 induces HMOX1 with minimal alteration of cellular redox levels or chemical reactivity was carried out by treating cells with N-acetyl cysteine (NAC). This compound acts to restore cellular glutathione levels and thus prevent oxidative stress. The degree to which NAC can suppress HMOX1 induction is an indicator of the amount of chemical reactivity or ROS stress that a compound is imposing on the cell and thus activating phase II gene transcription. […] Coupled with the data shown in FIG. 3, it is concluded that Compound 13 induces HMOX1 with minimal elevation of ROS or NAC-sensitive chemical reactivity.

NQO1 = assay: mRNA expression (Quantigene Plex) in NHLF cells: NQO1; details: Table 5, 6 h, mRNA normalized to GAPDH, above DMSO treated cells
Experimental: as §1

Nrf2 = assay: HMOX1 mRNA induction after Nrf2 siRNA silencing; details: NHLF cells, 50 nM siRNA 48 hours, FIG. 5
Experimental: Small interfering RNA targeting Nrf-2 (cat# SI03246614) or KEAP-1 (cat# SI03246439) were obtained from Qiagen at 20 nmol/tube. Negative control siRNA (cat#1027280) was also obtained from Qiagen. Lyophilized siRNA in each tube was resuspended with 1 ml of the provided siRNA Suspension Buffer to make a stock solution of 20 μM and tubes were heated at 90° C. for one minute and then at 37° C. for one hour prior to initial use.
Normal human lung fibroblasts were plated at 5000 cells/well in 96-well plates and allowed to attach. Prior to experiments, well s containing the cells were refreshed with 30 μl of complete growth medium. For each siRNA type, a 4× concentration (200 nM) of siRNA was prepared by adding 11 μl of siRNA stock into 1.1 ml of serum-free medium containing 9 μl/ml of SILENTFECT Lipid Reagent (BioRad, cat#170-3361). This solution was incubated at room temperature for 20 minutes prior to adding 10 μl into each well for a final concentration of 50 nM siRNA. Cells were incubated with siRNA for 48 hours, after which they were treated with compound for either 5 hours (QuantiGene RNA assay) or 15 hours (protein immunofluorescence assay).
The predicted response profile is that silencing of Nrf2 should reduce the amount of HMOX1 induction by Compound 13 and other HMOX1 inducers that are electrophiles or reactive compounds. To that end, Compound 13 and other tool compounds were tested in cells that were treated with siRNA directed to Nrf2. Following gene silencing with specific siRNA or control siRNA, the ability of tool compounds to induce HMOX1 mRNA was determined.

TXNRD1 = assay: mRNA expression (Quantigene Plex) in NHLF cells: TXNRD1; details: Table 5, 6 h, mRNA normalized to GAPDH, above DMSO treated cells
Experimental: as §1

ICAM = assay: mRNA expression (Quantigene Plex) in NHLF cells: ICAM; details: Table 5, 6 h, mRNA normalized to GAPDH, above DMSO treated cells
Experimental: as §1

Keap1 = assay: HMOX1 induction after Keap1 silencing (shRNA); details: NHLF cells, FIG. 6
Experimental: Normal human lung fibroblasts were plated in a 12-well tissue culture dish at 16,000 cells/well and allowed to attach overnight. Regular medium was then replaced with 200 μl of fresh growth medium containing 8 μg/ml hexadimethrine bromide (polybrene). Lentiviral transduction particles were then added in the following amounts: Control shRNA (1.1×10^7 TU/ml, Sigma, cat# SHC002V), 15 μl for an MOI of 10; KEAP-1 shRNA (6.3×10^6 TU/ml, Sigma, cat# SHCLNV-TRCN0000046092), 63 μl for an MOI of 20. After 4 hours in the cell culture incubator, another 200 μl of growth medium was added on top of the original volume. Cells were replenished the next day with fresh complete growth medium and were allowed to recover for 24 hours, after which selection medium was applied (complete medium with 1 μg/ml puromycin).
Another method of testing the role of the Nrf2 regulatory pathway on compound activity is to determine the effect of silencing Keap1 on HMOX1 gene expression. It is known that deleting Keap1 will result in the induction of Nrf2 dependent genes but not, to any significant degree, HMOX1. The proposed explanation for this observation is that HMOX1 requires the concomitant derepression of Bach1 activity and that this event is more dependent on active processes (e.g., heme binding, changes in redox potential of the cell, phosphorylation of Bach1, etc.). We therefore tested the ability of Compound 13 and tool compounds to induce HMOX1 in the presence of silencing of Keap1 in normal human lung fibroblasts.
Normal human lung fibroblasts were tested with DMSO, CoPP, Compound 13, and two derivatives including Compound 4 and Compound 8. An electrophile, Compound 1, was also included in the test set. […] On the other hand, induction of HMOX1 by the electrophile Compound 1 was inhibited.

O=C(Nc1ccc2cn[nH]c2c1)c1ccc2[nH]c(Nc3nc4ccccc4s3)nc2c1 [Compound 13, 2-(Benzothiazol-2-ylamino)-1H-benzoimidazole-5-carboxylic acid (1H-indazol-6-yl)-amide]
ATF4 (fold induction) (ATF4): 1.2 fold induction
HMOX1 (fold induction) (HMOX1 [1]): 25 fold induction
effect of N-acetyl cysteine (NAC) on HMOX1 induction (HMOX1 [2]): induces the greatest amount of HMOX1 with the least impact by NAC; also recorded: still induces HMOX1 expression in the presence of NAC
NQO1 (fold induction) (NQO1): shown to induce
NQO1 (fold induction) (NQO1; listed as #13): 2.2 fold induction
HMOX1 mRNA induction with siRNA directed to Nrf2 (Nrf2): affected by the presence of the siRNA for Nrf2; also recorded: requires Nrf2 for full induction of HMOX1 mRNA
TXNRD1 (fold induction) (TXNRD1): shown to induce
TXNRD1 (fold induction) (TXNRD1; listed as #13): 1.5 fold induction
ICAM (fold induction) (ICAM): nor did it induce
ICAM (fold induction) (ICAM; listed as #13): 1.1 fold induction
HMOX1 induction in the presence of Keap1 silencing (Keap1): unaffected in their ability to induce HMOX1 in the presence of Keap1 silencing; also recorded: behaves similarly to CoPP induction
